Drawing on US8592370B2, “Combination of insulin with triazine derivatives” (Poxel S.A.S., priority 2008, dated 2013), this text covers Fasting plasma glucose and OGTT plasma glucose for 2 compounds.

The subject of assay [1] is hyperglycemic and hypoinsulinemic Type 1 rat models (Streptozotocin). Nature of the assay: Fasting plasma glucose in STZ Type 1 rat model, insulin pellets with or without EMD. The format is in vivo. How it is done: (§1) The study was performed in hyperglycemic and hypoinsulinemic Type 1 rat models obtained by injection of high dose of Streptozotocin (STZ). Male Wistar rats (Charles River) were treated with STZ at 62.5 mg/kg IP. Rats were screened for baseline glucose levels three days after STZ injection. The animals with glucose levels below 35-40 mmol/l were excluded from this study. After selection, pellets of insulin were subcutaneously implanted (1+½ implants) at day 3. The release rate for each implant was 2 U per 24 h. In these experimental conditions each rat was infused with 3 U per 24 h of insulin for 40 days approximately (Limplant LINSHIN CANADA). 5,6-dihydro-4-dimethylamino-2-imino-6-methyl-1,3,5-triazine was orally administered at two doses, 75 and 150 mg/kg b.i.d., 10 days after induction of diabetes. Further experimental details are known to the skilled artisan, e.g. by the disclosure of WO 2003/092726, and can be easily modified as a matter of routine.

For assay [2] the test system is unchanged. Nature of the assay: Oral glucose tolerance test (OGTT), plasma glucose after 36 days of treatment. The format is in vivo. The settings on record: insulin alone. How it is done: as §1
The determination how quickly administered glucose is cleared form the blood was conducted by means of a glucose tolerance test. The glucose was orally given; so the common test was technically an oral glucose tolerance test (OGTT), which is well-known to the skilled artisan. The laboratory animal was fasting for 18 hours before it was administered a glucose solution. Blood was drawn at intervals (cf. Table 3) for measurement of glucose (blood sugar), and additionally insulin levels were measured to detect the degree of IR or deficiency, respectively. For diabetes screening, the most important sample is the 2 hour sample, whose blood sugar value is enhanced at mammals with diminished insulin secretion or IR.

In the case of `CC1NC(=N)N=C(N(C)C)N1` (stereo not shown) [EMD, 5,6-dihydro-4-dimethylamino-2-imino-6-methyl-1,3,5-triazine], the Fasting plasma glucose in assay [1] (EMD 75 mg/kg b.i.d. oral + insulin pellets 3 U per 24 h, day 36) was 18.86 ± 2.77 mmol/L; in assay [1] (EMD 150 mg/kg b.i.d. oral + insulin pellets 3 U per 24 h, day 36), 14.85 ± 2.03 mmol/L.
Turning to “control + insulin: subcutaneously implanted insulin pellets releasing 3 U per 24 h (Limplant LINSHIN CANADA); insulin alone group”, the Fasting plasma glucose in assay [1] (insulin pellets 3 U per 24 h alone, day 0 (before treatment)) was 33.20 mmol/L; in assay [1] (insulin pellets 3 U per 24 h alone, day 8), 17.22 mmol/L; in assay [1] (insulin pellets 3 U per 24 h alone, day 15), 11.25 mmol/L; in assay [1] (insulin pellets 3 U per 24 h alone, day 22) it was 16.66 mmol/L; in assay [1] (insulin pellets 3 U per 24 h alone, day 36), 21.46 mmol/L; in assay [1] (insulin pellets 3 U per 24 h alone, day 36, listed as insulin pellets), 21.46 ± 3.1 mmol/L. Also, the OGTT plasma glucose in assay [2] (0 min) was determined as 21.46 mmol/L; in assay [2] (10 min) it was 22.73 mmol/L; in assay [2] (20 min), 26.98 mmol/L; in assay [2] (30 min) it was 27.83 mmol/L; in assay [2] (45 min) it was 28.04 mmol/L; in assay [2] (60 min), 25.59 mmol/L. Further, the OGTT plasma glucose is 20.35 mmol/L in assay [2] (90 min) and 16.91 mmol/L in assay [2] (120 min).
